From US8637252B2, “Methods and compositions for determining altered susceptibility of HIV-1 to anti-HIV drugs” (Monogram Biosciences, Inc., priority 2011, dated 2014)
Where “and” joins values, the source holds several entries; their conditions need not be identical. Identical values can stand only once.

Experiments:
[1] = tested on: HIV-1 NL4-3 site-directed reverse transcriptase mutants; assay: phenotypic drug resistance test, site-directed reverse transcriptase mutants in NL4-3 background (POL segment assay); assay type: cell-based; settings: for resistance versus known NNRTI mutation(s) alone: any of N348I, T369I, E399D combined with G190S, K103N, or K103R and V179D, NL4-3 background
Experimental: Further, a site directed double mutant T3691/K103N was generated using conventional techniques and tested for resistance to an NNRTI using the methods described above.
To assess the effects of mutations at positions 348, 369, and 399, a series of site-directed mutants were constructed in an wild-type (NL4-3) background. The NNRTI susceptibility phenotypes of these mutants were then determined using the POL segment assay according to Example 2.
In particular, site-directed mutants were constructed in an NL4-3 background comprising N348I, T369I, E399D, or the combination of N3481 and T369I.
Next, a series of site-directed mutants were constructed to assess the effects of combinations of N3481, T369I, and E399D with previously recognized NNRTI resistance mutations. In particular, mutants comprising N348I, T369I, and E399D were made in combination with G190S, with K103N, and with the combination of K103R and V179D. The effects of these combinations on DLV, EFV, and NVP susceptibility were tested using the POL segment assay according to the method describe in Example 2. The results from these experiments are presented as FIG. 10.
To assess the specific effects of mutations at positions 348, 369, and 399, a series of site-directed mutants were constructed in an wild-type (NL4-3) background. The AZT susceptibility phenotype of these mutants were then determined with a POL segment assay according to Example 2.
In particular, site-directed mutants were constructed in an NL4-3 background comprising N348I, T3691, E399D, or the combination of N348I and T3691. The FC in AZT susceptibility for each mutant is shown as FIG. 13.

[2] = tested on: HIV-1 (patient-derived RHIN segment); assay: phenotypic drug resistance test, resistance test vectors with patient-derived RHIN segment, luciferase, 293 cells; assay type: cell-based
Description: Patient-derived segment(s) corresponding to the entire pol gene, encoding HIV protease, reverse transcriptase (including RNAse H), and integrase (hereinafter “POL”), the portion of pol encoding amino acids 1-305 of reverse transcriptase (hereinafter “PR-RT”), the portion of pol encoding amino acids 319-440 of reverse transcriptase (including RNAse H), and integrase (hereinafter “RHIN”), were amplified by the reverse transcription-polymerase chain reaction method (RT-PCR) using viral RNA isolated from viral particles present in the plasma or serum of HIV-infected individuals as described below. The portion of pol encoding protease, amino acids 1-531 of reverse transcriptase (including RNase H) (hereinafter “PRRT-RH”), or the portion of pol encoding protease, reverse transcriptase (including RNAse H) and integrase (hereinafter “PRRT-RHIN”), were assembled from amplicons described above by standard recombinant DNA techniques involving a KpnI restriction site at amino acid 400 or a Pin A1 site at amino acid 315.
Virus was pelleted by centrifugation at 20,400×g for 60 min from plasma (typically, 1 ml) prepared from blood samples collected in evacuated tubes containing either EDTA, acid-citrate dextrose, or heparin as an anticoagulant. Virus particles were disrupted by resuspending the pellets in 200 [1.1 of lysis buffer (4 M guanidine thiocyanate, 0.1 M Tris HCl (pH 8.0), 0.5% sodium lauryl sarcosine, 1% dithiothreitol). RNA was extracted from viral lysates by using oligo(dT) linked to magnetic beads (Dynal, Oslo, Norway). Reverse transcription was performed with Superscript III (Invitrogen) at 50 degrees for 1 hour using primer 1.
From the resultant cDNA either POL or RHIN sequences were amplified using the Advantage High Fidelity PCR kit (BD Biosciences; Clontech). POL amplification products are made using forward Primer 3 containing an Apal site and reverse Primer 4 containing a Xho 1 site. RHIN amplification products are made using forward Primer 2 containing a P1NA1 site and reverse Primer 4 containing a Xho 1 site.
A retroviral vector designed to measure antiretroviral drug susceptibility was constructed by using an infectious molecular clone of HIV-1. The vector, referred to herein as an indicator gene viral vector (IGVV), is replication defective and contains a luciferase expression cassette inserted within a deleted region of the envelope (env) gene. The IGVV is described in U.S. Pat. No. 5,837,464 (International Publication Number WO 97/27319) which is hereby incorporated by reference in its entirety. This retroviral vector was further modified to allow insertion of either the entire pol gene (POL) or the portion of poi encoding amino acids 319-440 of reverse transcriptase, the RNase H portion of reverse transcriptase, and integrase (REIN) by engineering an Xho l restriction enzyme recognition site into vif. Prior to doing this, an Xho 1 site in nef was deleted. Resistance Test vectors (RTVs) were constructed by incorporating amplified POL or RHIN into the IGVV by using Apal and Xhol or PinAI and Xho 1 restriction sites respectively. RTVs were prepared as libraries (pools) in order to capture and preserve the pol or RHIN sequence heterogeneity of the virus in the patient. POL amplification products were digested with Apal and Xhol, purified by agarose gel electrophoresis, and ligated to ApaI- and Xhol-digested IGVV DNA. RHIN amplification products were digested with PinAI and Xho/, purified by agarose gel electrophoresis, and ligated to PinAI and Xhol-digested IGVV DNA. Ligation reactions were used to transform competent Escherichia coli (Invitrogen, Carlsbad, Calif.). An aliquot of each transformation was plated onto agar, and colony counts were used to estimate the number of patient-derived segments represented in each RTV library. RTV libraries that comprised less than 50 members are not considered representative of the patient virus. […]

[3] = Sample 47 (K103K/N, V106V/A, Y181Y/C, G190G/A)
[4] = Sample 58 (K103N, Y181Y/C, G190G/A)
[5] = Sample 62 (K103H, P225P/H, T369T/I)
[6] = Sample 90 (K103K/N, Y181C, G190A)

O=C1Nc2ccc(Cl)cc2[C@@](C#CC2CC2)(C(F)(F)F)O1 [EFV, efavirenz]
resistance versus known NNRTI mutation(s) alone [1]: increased | fold change in IC50, RHIN ([2]; Sample 31 (K103N)): 1.1 fold | fold change in IC50, RHIN ([2]; Sample 33 (K103S)): 0.7 fold | fold change in IC50, RHIN ([2]; Sample 34): 1.0 fold | fold change in IC50, RHIN ([2]; Sample 35 (K103H)): 0.7 fold | fold change in IC50, RHIN ([2]; Sample 36 (K103K/W)): 1.0 fold | fold change in IC50, RHIN ([2]; Sample 38 (K103N)): 0.5 fold | fold change in IC50, RHIN ([2]; Sample 39 (T369A)): 0.9 fold | fold change in IC50, RHIN ([2]; Sample 42 (G190G/A)): 0.4 fold | fold change in IC50, RHIN ([2]; Sample 45): 1.0 fold | fold change in IC50, RHIN [2, 3]: 0.5 fold | fold change in IC50, RHIN ([2]; Sample 50 (K103N)): 0.5 fold | fold change in IC50, RHIN ([2]; Sample 51): 0.4 fold | fold change in IC50, RHIN ([2]; Sample 52): 1.0 fold | fold change in IC50, RHIN [2, 4]: 0.9 fold | fold change in IC50, RHIN [2, 5]: 1.8 fold and 1.83 fold | fold change in IC50, RHIN ([2]; Sample 64 (T369T/A)): 0.3 fold | fold change in IC50, RHIN ([2]; Sample 69): 0.8 fold | fold change in IC50, RHIN ([2]; Sample 72): 1.0 fold | fold change in IC50, RHIN ([2]; Sample 80 (K103K/N, Y181Y/C)): 0.52 fold | fold change in IC50, RHIN ([2]; Sample 81 (K103N, P225H)): 1.2 fold | fold change in IC50, RHIN ([2]; Sample 84): 0.5 fold | fold change in IC50, RHIN ([2]; Sample 85): 1.2 fold | fold change in IC50, RHIN ([2]; Sample 87): 1.3 fold | fold change in IC50, RHIN ([2]; Sample 89 (L1001, K103N)): 1.2 fold | fold change in IC50, RHIN [2, 6]: 0.7 fold | fold change in IC50, RHIN ([2]; Sample 92): 0.3 fold | fold change in IC50, RHIN ([2]; Sample 93): 0.9 fold

Cc1ccnc2c1NC(=O)c1cccnc1N2C1CC1 [NVP, nevirapine]
resistance versus known NNRTI mutation(s) alone [1]: increased | resistance of mutant ([1]; site-directed double mutant T369I/K103N): enhanced resistance | FC ([2]; Pool of patient sample 62, RT codons mutated: N348 (0.5), T369 (0.5), T377, T403): 7.61 | fold change in IC50, RHIN ([2]; Sample 31 (K103N)): 2.1 fold | fold change in IC50, RHIN ([2]; Sample 33 (K103S)): 1.0 fold | fold change in IC50, RHIN ([2]; Sample 34): 0.7 fold | fold change in IC50, RHIN ([2]; Sample 35 (K103H)): 1.2 fold | fold change in IC50, RHIN ([2]; Sample 36 (K103K/W)): 1.0 fold | fold change in IC50, RHIN ([2]; Sample 38 (K103N)): 0.5 fold | fold change in IC50, RHIN ([2]; Sample 39 (T369A)): 2.6 fold | fold change in IC50, RHIN ([2]; Sample 42 (G190G/A)): 0.6 fold | fold change in IC50, RHIN ([2]; Sample 45): 1.3 fold | fold change in IC50, RHIN [2, 3]: 1.0 fold | fold change in IC50, RHIN ([2]; Sample 50 (K103N)): 0.6 fold | fold change in IC50, RHIN ([2]; Sample 51): 0.6 fold | fold change in IC50, RHIN ([2]; Sample 52): 0.9 fold | fold change in IC50, RHIN [2, 4]: 1.7 fold | fold change in IC50, RHIN [2, 5]: 7.6 fold and 7.61 fold | fold change in IC50, RHIN ([2]; Sample 64 (T369T/A)): 0.4 fold | fold change in IC50, RHIN ([2]; Sample 69): 0.9 fold | fold change in IC50, RHIN ([2]; Sample 72): 1.6 fold | fold change in IC50, RHIN ([2]; Sample 80 (K103K/N, Y181Y/C)): 0.72 fold | fold change in IC50, RHIN ([2]; Sample 81 (K103N, P225H)): 1.4 fold | fold change in IC50, RHIN ([2]; Sample 84): 0.7 fold | fold change in IC50, RHIN ([2]; Sample 85): 2.1 fold | fold change in IC50, RHIN ([2]; Sample 87): 1.9 fold | fold change in IC50, RHIN ([2]; Sample 89 (L1001, K103N)): 2.7 fold | fold change in IC50, RHIN [2, 6]: 1.2 fold | fold change in IC50, RHIN ([2]; Sample 92): 0.5 fold | fold change in IC50, RHIN ([2]; Sample 93): 1.1 fold | FC ([2]; clone c03a of patient sample 62, RT codons mutated: T377, T403): 1.64 | FC ([2]; clone c03b of patient sample 62, RT codons mutated: A355, T369, T377, T403): 5.51 | FC ([2]; clone c08 of patient sample 62, RT codons mutated: H315, T369, T377): 12.98 | FC ([2]; clone c10 of patient sample 62, RT codons mutated: N348, T377, T403): 28.07 | FC ([2]; clone c12 of patient sample 62, RT codons mutated: T369, T377, T403): 9.18 | FC ([2]; clone c14 of patient sample 62, RT codons mutated: Y342, T377, T403, R448): 6.48 | FC ([2]; clone c15 of patient sample 62, RT codons mutated: N348, Y354, T403, N418): 2.37 | FC ([2]; clone c16 of patient sample 62, RT codons mutated: T377, T403, D511 (0.5)): 2.19 | FC ([2]; clone c18 of patient sample 62, RT codons mutated: A371, T377, T403): 2.46 | FC ([2]; clone c20 of patient sample 62, RT codons mutated: T377, T403): 3.97 | FC ([2]; clone c21 of patient sample 62, RT codons mutated: T377, T403, K550): 5.16 | FC ([2]; clone c23 of patient sample 62, RT codons mutated: T369, T377, T403): 10.11 | FC ([2]; clone c24 of patient sample 62, RT codons mutated: T377, T403): 4.77 | FC ([2]; clone c26 of patient sample 62, RT codons mutated: T369, T377, T403): 12.00 | FC ([2]; clone c28 of patient sample 62, RT codons mutated: T377, I393, T403, R448): 0.54
